Among the data in PubChem BioAssay AID258 (DTP/NCI, 2004) are T/C values, retold here.

“And” between values parts separate entries of the source, which are not always exact repeats. Identical values can stand only once. Toxic doses and inconclusive results are not listed.

For this test, the system named is CD2F1 mice, L1210 leukemia sc, survival T/C. Put plainly: NCI In Vivo Anticancer Drug Screen. Data for tumor model L1210 Leukemia (subcutaneous) in CD2F1 (CDF1) mice. The settings on record: endpoint: median survival time, higher = longer survival. Summed up:
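Antitumor activity is scored in tumor-bearing mice by comparing survival or tumor size of treated animals against vehicle-treated controls, reported as T/C.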

Setting [1] is: dose: 23.0 mg/kg/injection, schedule: Q01DX Z (sc), vehicle: water.
[2] abbreviates: dose: 39.0 mg/kg/injection, schedule: Q01DX Z (sc), vehicle: water.
[3] abbreviates: dose: 65.0 mg/kg/injection, schedule: Q01DX Z (sc), vehicle: water.
Where [4] appears, read: dose: 108.0 mg/kg/injection, schedule: Q01DX Z (sc), vehicle: water.
[5] abbreviates: dose: 180.0 mg/kg/injection, schedule: Q01DX Z (sc), vehicle: water.
Where [6] appears, read: dose: 300.0 mg/kg/injection, schedule: Q01DX Z (sc), vehicle: water.

For `COC(=O)C1(F)C(=O)NC(=O)NC1OC` (configuration not stated), the T/C is 110 % of control (dose: 50.0 mg/kg/injection, schedule: Q01DX009 (ip), vehicle: Klucel (hydroxypropylcellulose) (HPC)); 120 % of control (dose: 100.0 mg/kg/injection, schedule: Q01DX009 (ip), vehicle: Klucel (hydroxypropylcellulose) (HPC)); 163 % of control (dose: 120.0 mg/kg/injection, schedule: Q01DX009 (ip), vehicle: Klucel (hydroxypropylcellulose) (HPC)); 159 % of control (dose: 200.0 mg/kg/injection, schedule: Q01DX009 (ip), vehicle: Klucel (hydroxypropylcellulose) (HPC)); 120 % of control (dose: 333.33 mg/kg/injection, schedule: Q01DX009 (ip), vehicle: Klucel (hydroxypropylcellulose) (HPC)); 105 % of control (dose: 400.0 mg/kg/injection, schedule: Q01DX009 (ip), vehicle: Klucel (hydroxypropylcellulose) (HPC)). The T/C (dose: 555.56 mg/kg/injection, schedule: Q01DX009 (ip), vehicle: Klucel (hydroxypropylcellulose) (HPC)) was 110 % of control and the T/C (dose: 800.0 mg/kg/injection, schedule: Q01DX009 (ip), vehicle: Klucel (hydroxypropylcellulose) (HPC)) was 98 % of control.
For `CN1CCN(CN2C(=O)C3C4C=CC(C3C2=O)C2C3C(=O)N(CN5CCN(C)CC5)C(=O)C3C42)CC1` (configuration not stated), the T/C is, setting by setting: (dose: 21.6 mg/kg/injection, schedule: Q01DX009 (ip), vehicle: water) 106 % of control; (dose: 24.8 mg/kg/injection, schedule: Q01DX009 (ip), vehicle: water) 118 % of control; (dose: 36.0 mg/kg/injection, schedule: Q01DX009 (ip), vehicle: water) 113 % of control; (dose: 41.3 mg/kg/injection, schedule: Q01DX009 (ip), vehicle: water) 150 % of control; (dose: 60.0 mg/kg/injection, schedule: Q01DX009 (ip), vehicle: water) 170 % of control; (dose: 68.8 mg/kg/injection, schedule: Q01DX009 (ip), vehicle: water) 174 % of control. The T/C by setting is: (dose: 100.0 mg/kg/injection, schedule: Q01DX009 (ip), vehicle: water) 243 % of control; (dose: 114.7 mg/kg/injection, schedule: Q01DX009 (ip), vehicle: water) 235 % of control.
`Nc1nc2c(ncn2C2CC(O)C(CO)O2)c(=O)[nH]1` (configuration not stated): the T/C (dose: 31.0 mg/kg/injection, schedule: Q01DX Z (sc), vehicle: water) was 100 % of control.
`Oc1ccc(F)c2cccnc12`: the T/C reads like this: (dose: 39.0 mg/kg/injection, schedule: Q01DX Z (sc), vehicle: other) 100 % of control; (dose: 65.0 mg/kg/injection, schedule: Q01DX Z (sc), vehicle: other) 100 % of control; (dose: 108.0 mg/kg/injection, schedule: Q01DX Z (sc), vehicle: other) 100 % of control; (dose: 180.0 mg/kg/injection, schedule: Q01DX Z (sc), vehicle: other) 100 % of control.
Consider `OCC1OC(n2cnc3c(=S)nc[nH]c32)C(O)C1O` (configuration not stated), for which the T/C was 177 % of control (dose: 130.0 mg/kg/injection, schedule: Q01DX Z (sc), vehicle: other); 183 % of control (dose: 216.0 mg/kg/injection, schedule: Q01DX Z (sc), vehicle: other); 177 % of control (dose: 360.0 mg/kg/injection, schedule: Q01DX Z (sc), vehicle: other).
In the case of `CC[C@]1(O)C[C@H]2CN(CCc3c([nH]c4ccccc34)[C@@](C(=O)OC)(c3cc4c(cc3OC)N(C=O)[C@H]3[C@@](O)(C(=O)OC)[C@H](OC(C)=O)[C@]5(CC)C=CCN6CC[C@]43[C@@H]65)C2)C1`, the T/C reads like this: (dose: 0.15 mg/kg/injection, schedule: Q01DX009 (ip), vehicle: saline) 98 % of control; (dose: 0.2 mg/kg/injection, schedule: Q01DX009 (ip), vehicle: saline) 101 % of control; (dose: 0.25 mg/kg/injection, schedule: Q01DX009 (ip), vehicle: saline) 98 % of control; (dose: 0.25 mg/kg/injection, schedule: Q01DX009 (sc), vehicle: saline) 113 % of control; (dose: 0.5 mg/kg/injection, schedule: Q01DX009 (sc), vehicle: saline) 108 % of control; (dose: 0.75 mg/kg/injection, schedule: Q01DX009 (sc), vehicle: saline) 104 % of control and 92 % of control. Moreover, the T/C is 102 % of control (dose: 1.0 mg/kg/injection, schedule: Q01DX009 (sc), vehicle: saline); 120 % of control (dose: 1.25 mg/kg/injection, schedule: Q01DX001 (iv), vehicle: water); 120 % of control (dose: 1.25 mg/kg/injection, schedule: Q01DX001 (sc), vehicle: water); 111 % of control (dose: 1.25 mg/kg/injection, schedule: Q01DX009 (sc), vehicle: saline); 107 % of control (dose: 1.5 mg/kg/injection, schedule: Q01DX009 (sc), vehicle: saline); 120 % of control (dose: 2.5 mg/kg/injection, schedule: Q01DX001 (iv), vehicle: water). Also, the T/C runs as follows: (dose: 63.0 micrograms/kg/injection, schedule: Q01DX009 (ip), vehicle: saline) 101 % of control; (dose: 63.0 micrograms/kg/injection, schedule: Q01DX009 (sc), vehicle: saline) 103 % of control; (dose: 125.0 micrograms/kg/injection, schedule: Q01DX009 (ip), vehicle: saline) 98 % of control; (dose: 125.0 micrograms/kg/injection, schedule: Q01DX009 (sc), vehicle: saline) 103 % of control; (dose: 250.0 micrograms/kg/injection, schedule: Q01DX009 (ip), vehicle: saline) 96 % of control; (dose: 250.0 micrograms/kg/injection, schedule: Q01DX009 (sc), vehicle: saline) 107 % of control. The T/C by setting is: (dose: 500.0 micrograms/kg/injection, schedule: Q01DX009 (ip), vehicle: saline) 96 % of control; (dose: 500.0 micrograms/kg/injection, schedule: Q01DX009 (sc), vehicle: saline) 114 % of control.
For `COCCCNc1ncnc2[nH]ncc12`, the T/C reads like this: under setting [1], 100 % of control; under setting [2], 100 % of control; under setting [3], 100 % of control; under setting [4], 100 % of control; under setting [5], 109 % of control; under setting [6], 109 % of control.
Regarding `N[C@H](C(=O)O)[C@@H]1CC(Cl)=NO1`, the T/C (dose: 2.0 mg/kg/injection, schedule: Q01DX009 (sc), vehicle: saline) was 116 % of control.
As to `COc1ccc2c(c1OC)C(=O)O[C@@H]2[C@H]1c2c(cc3c(c2OC)OCO3)CCN1C`, the T/C (dose: 14.0 mg/kg/injection, schedule: Q01DX Z (sc), vehicle: water) was 100 % of control; the T/C under setting [1] was 100 % of control; the T/C under setting [2] is 100 % of control; the T/C under setting [3] is 100 % of control; the T/C under setting [4] is 100 % of control; the T/C under setting [5] was 100 % of control. Also, the T/C is, setting by setting: under setting [6], 100 % of control; (dose: 500.0 mg/kg/injection, schedule: Q01DX Z (sc), vehicle: water) 100 % of control.
As to `O=C(O)CCCc1ccc(N(CCCl)CCCl)cc1`, the T/C is, setting by setting: (dose: 1.5 mg/kg/injection, schedule: Q01DX009 (ip), vehicle: saline with Tween-80) 98 % of control; (dose: 3.0 mg/kg/injection, schedule: Q01DX009 (ip), vehicle: saline with Tween-80) 107 % of control; (dose: 6.0 mg/kg/injection, schedule: Q01DX009 (ip), vehicle: saline with Tween-80) 107 % of control; (dose: 12.0 mg/kg/injection, schedule: Q01DX009 (ip), vehicle: saline with Tween-80) 123 % of control.
In the case of `O=C(CCBr)N1CCN(C(=O)CCBr)CC1`, the T/C runs as follows: (dose: 28.0 mg/kg/injection, schedule: Q01DX Z (sc), vehicle: methylcellulose (MC)) 111 % of control; (dose: 47.0 mg/kg/injection, schedule: Q01DX Z (sc), vehicle: methylcellulose (MC)) 111 % of control; (dose: 78.0 mg/kg/injection, schedule: Q01DX Z (sc), vehicle: methylcellulose (MC)) 122 % of control; (dose: 360.0 mg/kg/injection, schedule: Q01DX Z (sc), vehicle: methylcellulose (MC)) 122 % of control.
